Reference: US11083717B2, “Compositions and methods for drug sensitization of parasites” (The Texas A&M University System, priority 2015, dated 2021)
Values after ≈ are worked out from the molar mass of the structure shown. Where two headings read alike, the source gives them in different places.

Assays:
[1] = Kinetic solubility; type: physicochemical
[2] = Plasma protein binding; type: in vitro ADME; conditions: mouse, mice, read-out: PPB (converted)
[3] = test system: Cryptosporidium parvum (CP); experiment: Cell culture model of Cryptosporidium parvum infection in HCT-8 cells, real-time qRT-PCR; type: cell-based; conditions: Cryptosporidium parvum
Method in brief: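 HCT-8 monolayers were infected with C. parvum Iowa oocysts (1.5×10^4/well) for 3 h, then compounds were added after medium exchange and cells were incubated 41 h more (44 h total, 37 °C). Parasite Cp18S rRNA was measured by one-step SYBR qRT-PCR of lysates, normalized to host Hs18S, and % inhibition at the stated µM was derived from a standard curve.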

[4] = HCLint in vitro intrinsic clearance, human (HLM); type: in vitro ADME
[5] = in vitro
[6] = test system: S. cerevisiae; experiment: in vitro; conditions: Saccharomyces cerevisiae
[7] = test system: human fibroblast; experiment: in vitro; conditions: human
[8] = MCLint in vitro intrinsic clearance, mouse (MLM); type: in vitro ADME
[9] = test system: Cryptosporidium parvum; conditions: for effectiveness in the same type of test (IL-12 knockout mouse model): in vivo; for Mouse Model (Mead) DPI7: @50 mg/kg, day 7 post infection
Protocol: The anticryptosporidial activity of the in vitro inhibitors was assessed in the IL-12 knockout mouse model that resembles the acute human disease (Ehigiator H N, Romagnoli P, Borgelt K, Fernandez M, McNair N, Secor W E, Mead J R. 2005. Mucosal cytokine and antigen-specific responses to Cryptosporidium parvum in IL-12p40 KO mice. Parasite Immunol. 27: 17-28; Campbell L D, Stewart J N, Mead J R. 2002. Susceptibility to Cryptosporidium parvum infections in cytokine- and chemokine-receptor knockout mice. J. Parasitol. 88:1014-1016). The protocol was approved by the Institutional Animal Care and Use Committees of Emory University, the AtlantaVAMedical Center, and Brandeis University. Mice (6 to 10 per group) were inoculated with 1,000 purified CP oocysts (Iowa isolate, from cattle). Treatment by gavage began 4 h postinfection with either vehicle (5% dimethyl sulfoxide (DMSO) in canola oil), 50-100 mg/kg compound, or 2,000 mg/kg paromomycin. Compounds were given for 7 days, and mice were sacrificed on day 8 (peak infection). Parasite load was quantified by fluorescence-activated cell sorting (FACS) assays for the presence of the oocysts in the feces at days 0, 4, and 7. Fecal pellets from individual mice were routinely collected daily and homogenized in adjusted volumes of 2.5% potassium dichromate. Samples were processed individually. Aliquots (200 ul) of vortexed samples were processed over microscale sucrose gradients as previously described (Arrowood M J, Hurd M R, Mead J R. 1995. A new method for evaluating experimental cryptosporidial parasite loads using immunofluorescent flowcytometry. J. Parasitol. 81:404-409). The oocyst-containing fraction was collected, washed, and treated with monoclonal antibody (OW5O-FITC) for 20 min. Samples were adjusted to 600 ul, and a portion (100 ul) was assayed with a 102-s sampling interval using logical gating of forward/side scatter and OW5O-FITC fluorescence signal on a Becton, Dickinson FACScan flow cytometer. Flow cytometry data were evaluated by analysis of variance (KaleidaGraph (Synergy Software, Reading Pa.); Microsoft Excel (Microsoft Corporation, Redmond, Wash.)).
NZ-366 (50 mg/kg) and NZ-369 (100 mg/kg) were administered via gavage in a single daily dose to IL-12 knockout mice that were infected with 1,000 CP oocysts. Additional control groups included those treated with single daily doses of vehicle, and paromomycin (Prm) (2,000 mg/kg), by oral gavage.

[10] = molecular target: Human ether-a-go-go-related gene (hERG) (Homo sapiens, UniProt Q12809); experiment: hERG test (potential cardiotoxicity); type: biochemical; conditions: read-out: hERG (Abbvie)
[11] = molecular target: hERG (Homo sapiens, UniProt Q12809); experiment: hERG test (potential cardiotoxicity); type: biochemical; conditions: human; read-out: hERG (Abbvie)
[12] = 44 h, CP in HCT-8 cells, 44 h infection, 50% reduction of parasite growth vs control, NA: not active, read-out: MIC50
[13] = NZ-366 50 mg/kg, NZ-369 100 mg/kg, paromomycin 2,000 mg/kg

Human ether-a-go-go-related gene (hERG), sequence (Q12809 whole entry): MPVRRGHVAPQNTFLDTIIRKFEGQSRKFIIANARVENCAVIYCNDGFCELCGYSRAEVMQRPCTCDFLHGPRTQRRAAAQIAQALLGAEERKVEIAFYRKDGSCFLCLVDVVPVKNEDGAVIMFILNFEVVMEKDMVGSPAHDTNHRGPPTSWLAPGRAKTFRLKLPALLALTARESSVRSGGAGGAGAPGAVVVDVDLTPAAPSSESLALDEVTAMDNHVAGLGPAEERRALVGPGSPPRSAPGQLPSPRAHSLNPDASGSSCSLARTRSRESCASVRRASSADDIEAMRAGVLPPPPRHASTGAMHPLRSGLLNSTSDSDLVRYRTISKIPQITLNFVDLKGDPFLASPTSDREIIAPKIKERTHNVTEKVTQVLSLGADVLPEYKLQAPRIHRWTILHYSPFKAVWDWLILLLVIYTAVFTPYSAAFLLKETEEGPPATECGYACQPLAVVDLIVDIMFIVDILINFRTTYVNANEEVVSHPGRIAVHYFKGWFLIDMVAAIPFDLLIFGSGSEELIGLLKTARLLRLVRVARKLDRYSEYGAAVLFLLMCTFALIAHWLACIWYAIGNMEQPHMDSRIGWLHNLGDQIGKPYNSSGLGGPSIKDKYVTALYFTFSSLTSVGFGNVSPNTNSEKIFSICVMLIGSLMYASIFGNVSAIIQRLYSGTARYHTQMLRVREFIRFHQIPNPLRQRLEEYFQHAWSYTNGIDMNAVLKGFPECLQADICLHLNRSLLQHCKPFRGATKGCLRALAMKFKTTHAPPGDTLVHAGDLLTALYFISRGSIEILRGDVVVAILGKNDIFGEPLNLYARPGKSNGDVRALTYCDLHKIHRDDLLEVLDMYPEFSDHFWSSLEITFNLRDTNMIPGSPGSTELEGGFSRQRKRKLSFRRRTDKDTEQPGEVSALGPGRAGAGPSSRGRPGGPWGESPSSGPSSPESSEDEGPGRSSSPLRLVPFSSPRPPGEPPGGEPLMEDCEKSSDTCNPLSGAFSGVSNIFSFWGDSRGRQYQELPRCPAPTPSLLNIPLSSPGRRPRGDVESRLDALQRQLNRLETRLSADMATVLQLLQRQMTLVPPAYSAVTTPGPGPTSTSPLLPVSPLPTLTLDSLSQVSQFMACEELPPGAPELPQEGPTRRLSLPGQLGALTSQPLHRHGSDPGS
hERG, sequence (Q12809 whole entry): as above

SMILES	Kinetic Sol. [1] [µM]	fraction unbound [2]	MIC50 [3, 12] [nM]	MIC50 ([3]; read-out: MIC50 (nM) (CP))	HCLint (mL/min/g liver), HLM [4]	IC50 ([5]; Saccharomyces cerevisiae) [µM]	IC50 ([5]; human) [µM]	concentrations at which not toxic, S. cerevisiae cytotoxicity testing [6] [µM]	concentrations at which not toxic, human fibroblast cytotoxicity testing [7] [µM]	MCLint (mL/min/g liver), MLM [8]	effectiveness in the same type of test (IL-12 knockout mouse model) [9]	IC50 [10] [µM]	Mouse Model (Mead) DPI7 [9]	overt toxicity in the treated infected mice ([9]; NZ-366 50 mg/kg, NZ-369 100 mg/kg, 7 days)	anticryptosporidial activity, fecal oocysts day 7 post infection ([9]; NZ-366 50 mg/kg, NZ-369 100 mg/kg, gavage, single daily dose, FIG. 1)	effectiveness compared with paromomycin after a single dose [9, 13]	effectiveness compared with paromomycin over the course of the study [9, 13]	IC50 [11] [µM]
CC(C)NC(=O)C(C)c1ccc(Oc2nc3ccc(Cl)cc3s2)cc1 (stereo not drawn) [NZ-327, 2-{4-[(6-chloro-1,3-benzothiazol-2-yl)oxy]phenyl}-N-(propan-2-yl)propanamide]	33	0.016	7 to 22 (≈ 0.00262 to 0.00825 µg/mL)	7 to 22 (≈ 0.00262 to 0.00825 µg/mL)	HLM = 1.3 mL/min/g liver	> 100	> 100	≥ 100	≥ 100	MLM = 3.7 mL/min/g liver								
CC(C(=O)N1CCNCC1)c1ccc(Oc2nc3ccc(Cl)cc3s2)cc1 (stereo not drawn) [NZ-364, 2-{4-[(6-chloro-1,3-benzothiazol-2-yl)oxy]phenyl}-1-(piperazin-1-yl)propan-1-one]			120 (≈ 0.0482 µg/mL)					≥ 100	≥ 100		effective							
CC(C(=O)N1CCOCC1)c1ccc(Oc2nc3ccc(Cl)cc3s2)cc1 (stereo not drawn) [NZ-365, 2-{4-[(6-chloro-1,3-benzothiazol-2-yl)oxy]phenyl}-1-(morpholin-4-yl)propan-1-one]	28		25 (≈ 0.0101 µg/mL)	25 (≈ 0.0101 µg/mL)	HLM = 4.8 mL/min/g liver	> 100	> 100	50 to 100	≥ 100	MLM = 10 mL/min/g liver		12						
CC(C(=O)N1CCN(C)CC1)c1ccc(Oc2nc3ccc(Cl)cc3s2)cc1 (stereo not drawn) [NZ-366, 2-{4-[(6-chloro-1,3-benzothiazol-2-yl)oxy]phenyl}-1-(4-methylpiperazin-1-yl)propan-1-one]	62	0.019	50 (≈ 0.0208 µg/mL)	50 (≈ 0.0208 µg/mL)	HLM = 7.9 mL/min/g liver	80	48	25 to 50	25 to 50	MLM = 41 mL/min/g liver		2.4	DPI7 = 59%	no overt toxicity	have anticryptosporidial activity	more effective than paromomycin	equally as effective as paromomycin	
CC(C(=O)NCCO)c1ccc(Oc2nc3ccc(Cl)cc3s2)cc1 (stereo not drawn) [NZ-370, 2-{4-[(6-chloro-1,3-benzothiazol-2-yl)oxy]phenyl}-N-(2-hydroxyethyl)propanamide]	40		50 to 60 (≈ 0.0188 to 0.0226 µg/mL)	50 to 60 (≈ 0.0188 to 0.0226 µg/mL)		> 100	> 100	≥ 100	≥ 100									30
CC(C(=O)NCC(O)CO)c1ccc(Oc2nc3ccc(Cl)cc3s2)cc1 (stereo not drawn) [NZ-372, 2-{4-[(6-chloro-1,3-benzothiazol-2-yl)oxy]phenyl}-N-(2,3-dihydroxypropyl)propanamide]			85 (≈ 0.0346 µg/mL)					≥ 100			effective							
CN1CCN(C(=O)Nc2ccc(Oc3nc4ccc(Cl)cc4s3)cc2)CC1 [NZ-475, N-{4-[(6-chloro-1,3-benzothiazol-2-yl)oxy]phenyl}-4-methylpiperazine-1-carboxamide]			60 (≈ 0.0242 µg/mL)					≥ 100	≥ 100		effective							
CC(C(=O)NCCN(C)C)c1ccc(Oc2nc3ccc(Cl)cc3s2)cc1 (stereo not drawn) [NZ-516, 2-{4-[(6-chloro-1,3-benzothiazol-2-yl)oxy]phenyl}-N-[2-(dimethylamino)ethyl]propanamide]	100		16 (≈ 0.00646 µg/mL)	16 (≈ 0.00646 µg/mL)	HLM = 0.54 mL/min/g liver	> 100	5.6	≥ 100	≥ 100	MLM = 4.1 mL/min/g liver	effective	2.7	DPI7 = 94%					
CC(C(=O)NC1CC1)c1ccc(Oc2nc3ccc(Cl)cc3s2)cc1 (stereo not drawn) [NZ-538, 2-{4-[(6-chloro-1,3-benzothiazol-2-yl)oxy]phenyl}-N-cyclopropylpropanamide]			54 (≈ 0.0201 µg/mL)	54 (≈ 0.0201 µg/mL)	HLM = 0.7 mL/min/g liver	> 100	> 100			MLM = 3.9 mL/min/g liver		7.3						
CC(C(=O)NC1CCC1)c1ccc(Oc2nc3ccc(Cl)cc3s2)cc1 (stereo not drawn) [NZ-539, 2-{4-[(6-chloro-1,3-benzothiazol-2-yl)oxy]phenyl}-N-cyclobutylpropanamide]			57 (≈ 0.0221 µg/mL)	57 (≈ 0.0221 µg/mL)	HLM = 1.8 mL/min/g liver	> 100	> 100			MLM = 4.4 mL/min/g liver		> 30						
COCCNC(=O)C(C)c1ccc(Oc2nc3ccc(Cl)cc3s2)cc1 (stereo not drawn) [NZ-541, 2-{4-[(6-chloro-1,3-benzothiazol-2-yl)oxy]phenyl]-N-(2-methoxyethyl)propanamide]			81 (≈ 0.0317 µg/mL)	81 (≈ 0.0317 µg/mL)	HLM = 2.0 mL/min/g liver	> 100	> 100			MLM = 6.3 mL/min/g liver		27						
CC(C(=O)NC1COC1)c1ccc(Oc2nc3ccc(Cl)cc3s2)cc1 (stereo not drawn) [NZ-543, 2-{4-[(6-chloro-1,3-benzothiazol-2-yl)oxy]phenyl}-N-(oxetan-3-yl)propanamide]			45 (≈ 0.0175 µg/mL)	45 (≈ 0.0175 µg/mL)	HLM = 1.2 mL/min/g liver	> 100	> 100			MLM = 2 mL/min/g liver		24						
CC(C(=O)NC1CCOC1)c1ccc(Oc2nc3ccc(Cl)cc3s2)cc1 (stereo not drawn) [NZ-544, 2-{4-[(6-chloro-1,3-benzothiazol-2-yl)oxy]phenyl}-N-(oxolan-3-yl)propanamide]			72 (≈ 0.029 µg/mL)	72 (≈ 0.029 µg/mL)	HLM = 2.6 mL/min/g liver	> 100	> 100			MLM = 3.3 mL/min/g liver		11						
CC(C(=O)N1CCS(=O)(=O)CC1)c1ccc(Oc2nc3ccc(Cl)cc3s2)cc1 (stereo not drawn) [NZ-553, 4-(2-{4-[(6-chloro-1,3-benzothiazol-2-yl)oxy]phenyl}propanoyl)-1λ^6,4-thiomorpholine-1,1-dione]	100	0.01	2 (≈ 0.000902 µg/mL)	2 (≈ 0.000902 µg/mL)	HLM = 0.87 mL/min/g liver	> 100	40			MLM = 1.28 mL/min/g liver		11						
